Data from ChEMBL document CHEMBL4334513, “Discovery of a Potent, Selective, and Orally Available MTHFD2 Inhibitor (DS18561882) with in Vivo Antitumor Activity” (J Med Chem, 2019).
Values belong to the compound of their own block, whether it stands above or below them.

Tests used:
[1] = molecular target: T1, Bifunctional methylenetetrahydrofolate dehydrogenase/cyclohydrolase, mitochondrial (Homo sapiens, UniProt P13995); test: Inhibition of recombinant MTHFD2 (unknown origin) using THF as substrate incubated for 30 mins in presence of NAD
T1 sequence (P13995 whole entry): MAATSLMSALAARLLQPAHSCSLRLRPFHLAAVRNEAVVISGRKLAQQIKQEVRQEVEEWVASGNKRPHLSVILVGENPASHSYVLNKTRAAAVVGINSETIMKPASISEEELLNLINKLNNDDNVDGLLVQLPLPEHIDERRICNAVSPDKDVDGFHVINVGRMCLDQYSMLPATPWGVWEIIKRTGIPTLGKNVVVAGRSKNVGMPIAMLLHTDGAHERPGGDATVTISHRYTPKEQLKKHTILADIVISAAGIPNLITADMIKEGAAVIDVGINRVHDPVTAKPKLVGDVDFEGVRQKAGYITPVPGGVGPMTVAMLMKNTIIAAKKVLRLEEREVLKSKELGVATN

[2] = Effective permeability of compound at pH 7.4 by PAMPA; format: ADME; details: read-out: Peff
[3] = Lipophilicity, logP of compound; format: physicochemical; details: octanol/water
[4] = Antiproliferative activity against human MDA-MB-231-luc-D3H2LN cells assessed as inhibition of growth after 3 days by CellTiter Glo assay; format: functional; details: 72 h
[5] = molecular target: T2, C-1-tetrahydrofolate synthase, cytoplasmic (Homo sapiens, UniProt P11586)
T2 sequence (P11586 whole entry): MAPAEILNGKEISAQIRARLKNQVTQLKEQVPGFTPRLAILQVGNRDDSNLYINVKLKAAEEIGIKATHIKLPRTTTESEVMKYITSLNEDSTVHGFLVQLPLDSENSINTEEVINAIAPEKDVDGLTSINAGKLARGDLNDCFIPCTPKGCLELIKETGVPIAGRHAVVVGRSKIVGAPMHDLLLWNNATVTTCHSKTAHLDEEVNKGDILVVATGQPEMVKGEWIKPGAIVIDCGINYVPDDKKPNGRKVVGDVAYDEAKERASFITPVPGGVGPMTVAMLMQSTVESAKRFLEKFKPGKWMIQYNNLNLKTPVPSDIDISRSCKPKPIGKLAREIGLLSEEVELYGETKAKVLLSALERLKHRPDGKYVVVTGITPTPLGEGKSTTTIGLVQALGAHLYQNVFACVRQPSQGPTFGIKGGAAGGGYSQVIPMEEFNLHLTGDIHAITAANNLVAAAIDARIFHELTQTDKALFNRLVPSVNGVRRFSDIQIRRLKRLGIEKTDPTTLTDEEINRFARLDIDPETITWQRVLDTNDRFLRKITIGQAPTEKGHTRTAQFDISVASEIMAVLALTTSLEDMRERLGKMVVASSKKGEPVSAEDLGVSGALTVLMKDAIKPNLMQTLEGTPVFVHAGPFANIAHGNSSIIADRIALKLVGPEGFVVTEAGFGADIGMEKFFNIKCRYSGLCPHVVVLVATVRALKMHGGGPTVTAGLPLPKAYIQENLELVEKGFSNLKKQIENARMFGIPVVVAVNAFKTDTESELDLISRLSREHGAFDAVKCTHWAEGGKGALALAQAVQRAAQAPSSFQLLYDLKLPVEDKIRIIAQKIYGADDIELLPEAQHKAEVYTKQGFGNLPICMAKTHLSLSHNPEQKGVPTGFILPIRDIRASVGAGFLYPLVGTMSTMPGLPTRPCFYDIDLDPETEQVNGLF
Description: Inhibition of recombinant MTHFD1 (unknown origin) using THF as substrate incubated for 30 mins in presence of NAD

[6] = Dissociation constant, acidic pKa of compound; format: physicochemical

Structure (SMILES): COc1cc(C(=O)N2CCc3c(c(=O)oc4c(C)c(N5CCN(C)CC5)ccc34)C2)ccc1NS(C)(=O)=O
IC50 [1]: 0.4 µM
pKa [6]: 8.4
Papp [2]: 44.2 ×10⁻⁶ cm/s
logP [3]: 1.6
GI50 [4]: 10 µM
IC50 [5]: > 30 µM

Structure (SMILES): Cc1cc2c3c(c(=O)oc2cc1OCCN(C)C)CN(C(=O)c1ccc(C(=O)O)cc1)CC3
IC50 [1]: > 30 µM
IC50 [5]: > 30 µM

Structure (SMILES): Cc1cccc2oc(=O)c3c(c12)CCN(C(=O)c1ccc(C(=O)O)cc1)C3
IC50 [1]: 1.3 µM
IC50 [5]: > 30 µM

Structure (SMILES): Cc1c(N2CCN(C)CC2)ccc2c3c(c(=O)oc12)CN(C(=O)c1ccc(NS(C)(=O)=O)c(OC(F)(F)F)c1)CC3
pKa [6]: 6.8
Papp [2]: 43.7 ×10⁻⁶ cm/s
logP [3]: 1.9
GI50 [4]: 0.38 µM

Structure (SMILES): Cc1cc(C(=O)N2CCc3c(c(=O)oc4c(C)c(N5CCN(C)CC5)ccc34)C2)ccc1NS(C)(=O)=O
IC50 [1]: 0.53 µM
pKa [6]: 8.3
Papp [2]: 23.1 ×10⁻⁶ cm/s
logP [3]: 1.8
GI50 [4]: 7.7 µM
IC50 [5]: > 30 µM

Structure (SMILES): CN(C)c1ccc(-c2ccc3c4c(c(=O)oc3c2)CN(C(=O)c2ccc(C(=O)O)cc2)CC4)cc1
IC50 [1]: 3.8 µM
IC50 [5]: 5.4 µM

Continued by falling IC50 [1], values first:

IC50 [1]: 0.39 µM
IC50 [5]: 27 µM
Structure (SMILES): CN1CCC(Oc2ccc3c4c(c(=O)oc3c2)CN(C(=O)c2ccc(C(=O)O)cc2)CC4)CC1

IC50 [1]: 0.36 µM
IC50 [5]: 18.7 µM
Structure (SMILES): CN(C)CCCOc1ccc2c3c(c(=O)oc2c1)CN(C(=O)c1ccc(C(=O)O)cc1)CC3

IC50 [1]: 0.2 µM
pKa [6]: 8.2
Papp [2]: 5.4 ×10⁻⁶ cm/s
logP [3]: 1.6
IC50 [5]: > 30 µM
Structure (SMILES): Cc1c(N2CCN(C)CC2)ccc2c3c(c(=O)oc12)CN(C(=O)c1ccc(NS(C)(=O)=O)cc1)CC3
GI50 [4]: 6.3 µM

IC50 [1]: 0.089 µM
Papp [2]: 6.6 ×10⁻⁶ cm/s
logP [3]: 1.8
IC50 [5]: > 30 µM
Structure (SMILES): Cc1c(N2CCN(C)CC2)ccc2c3c(c(=O)oc12)CN(C(=O)c1cc(Cl)cc(NS(C)(=O)=O)c1)CC3
GI50 [4]: 5.5 µM

IC50 [1]: 0.038 µM
pKa [6]: 6.9
Papp [2]: 16.9 ×10⁻⁶ cm/s
logP [3]: 1.7
IC50 [5]: 8 µM
Structure (SMILES): Cc1c(N2CCN(C)CC2)ccc2c3c(c(=O)oc12)CN(C(=O)c1ccc(NS(C)(=O)=O)c(F)c1)CC3
GI50 [4]: 2 µM

IC50 [1]: 0.033 µM
pKa [6]: 6.8
Papp [2]: > 50 ×10⁻⁶ cm/s
logP [3]: 1.9
IC50 [5]: 4.2 µM
Structure (SMILES): Cc1c(N2CCN(C)CC2)ccc2c3c(c(=O)oc12)CN(C(=O)c1ccc(NS(C)(=O)=O)c(Br)c1)CC3
GI50 [4]: 1.6 µM
